Entries after “also recorded” stand apart in the source; their conditions may differ.

One series can be described thus: Electroacoustic sonic amplitude (ESA) as a function of pH. The format is physicochemical. Conditions: FD1 slurries.
For `CC1=NN(c2ccc(C(=O)O)cc2)C(=O)C1=CC=Cc1c(C)nn(-c2ccc(C(=O)O)cc2)c1O` [FD1], the intrinsic electrokinetic charge result is “negative”.

Still in this series, the particulars now being: FD1 versus FD2.
For `CC1=NN(c2ccc(C(=O)O)cc2)C(=O)C1=CC=Cc1c(C)nn(-c2ccc(C(=O)O)cc2)c1O` [FD1], the “lowest apparent pKa compared with FD2” value is recorded as “three pH units lower than that observed for FD2”.

Still in this series, the particulars now being: above pH 5, FIG. 2.
On to `CC1=NN(c2ccc(C(=O)O)cc2)C(=O)C1=CC=Cc1c(C)nn(-c2ccc(C(=O)O)cc2)c1O` [FD1], for which the “solubility of the dye with increasing pH” value was “marked increased solubility”.

Another series in a line: pH measurement of FD1 slurry on addition of buffering salt. It counts as physicochemical. The following applies: 0.1 mole/L aqueous salt added to S1 slurry.
Experimental: Measurements of pH were made using a Corning combination pH electrode, calibrated with VWR buffers of pH 4.0 and pH 7.0, using a Radiometer Copenhagen PHM63 pH meter. Equilibrated measurements were taken at about 24° C. while stirring the solutions or slurries.
About 97.0 g of the above described S1 slurry were placed in a 200 mL beaker upon a magnetic stirrer, and this slurry was moderately stirred using a magnetic stirring bar.
About 93.9 g of the above described S1 slurry were placed in a 200 mL beaker upon a magnetic stirrer, and was moderately stirred. […] Aliquots of 0.1 mole/L aqueous sodium citrate were added, and pH was recorded after each addition.
About 93.3 g of the above described S1 slurry were placed in a 200 mL beaker and stirred.
Turning to `CC(=O)O` [sodium acetate], the “effect of added buffering salt on slurry pH” value is on record as “increases the slurry pH to a significant extent; also recorded: significantly increases the slurry pH”.
Same read-out and setting: as for `O=C([O-])c1ccccc1O.[Na+]` [sodium salicylate], the entry is “provides some pH control, but that the effect is less than that exhibited comparatively to the earlier examples”.

Assay in the next series: not given
The following applies: Texter, Langmuir, 8, 291 (1992); cited from earlier work.
Regarding `CC1=NN(c2ccc(C(=O)O)cc2)C(=O)C1=Cc1c(C)nn(-c2ccc(C(=O)O)cc2)c1O` [FD2], the intrinsic electrokinetic charge result is “negative”.

The same series, now with this note: slurry in the absence of surfactant; Texter, Langmuir, 8, 291 (1992); cited from earlier work.
With `CC1=NN(c2ccc(C(=O)O)cc2)C(=O)C1=Cc1c(C)nn(-c2ccc(C(=O)O)cc2)c1O` [FD2], the “S-shaped ESA transition over the pH interval” value is listed as 4-6.

Assay in a further series: not given
Conditions: 18° C.; cited from earlier work.
Usually pKa stands for the negative logarithm of the acid dissociation constant. Regarding `O=S(=O)(O)CCCNCCNCCCS(=O)(=O)O` [N,N'-Bis(3-sulphopropyl) ethylenediamine], the pKa is on record as 6.65.

The series is the same for the next values; noted with them: 20° C.; cited from earlier work.
Take `Cc1ccc(NS(=O)(=O)c2ccccc2)cc1` [p-CH3 --C6 H4 --NHSO2 --C6 H5]: the pKa is reported as 8.64.
As to `O=C(O)c1ccc(S(=O)(=O)Nc2ccccc2)cc1` [p-CO2 H--C6 H4 --SO2 NH--C6 H5], the pKa2 was 7.75.
Take `CC(=O)c1ccc(S(=O)(=O)Nc2ccccc2)cc1` [p-COCH3 --C6 H4 --SO2 NH--C6 H5]: the pKa is 6.94.
Turning to `O=S(=O)(Nc1ccccc1)c1ccccc1` [C6 H5 --SO2 NH--C6 H5], the pKa is reported as 8.31.
In the case of `NS(=O)(=O)c1ccc([N+](=O)[O-])cc1` [p-NO2 --C6 H4 --SO2 NH2], the pKa is 9.14.
In the case of `COc1ccc(NS(=O)(=O)c2ccccc2)cc1` [p-CH3 O--C6 H4 --NHSO2 --C6 H5], the pKa was 8.70.
In the case of `NS(=O)(=O)c1ccc(Cl)cc1` [p-Cl--C6 H4 --SO2 NH2], the pKa is listed as 9.77.

The series is the same for the next values; noted with them: 25° C.; cited from earlier work.
As for `O=C(O)c1ccccc1C(=O)O` [Phthalic acid], the pKa2 was 5.41.
For the molecule `NNc1cccc([N+](=O)[O-])c1` [m-NO2 --C6 H4 --NHNH2], the pKa is on record as 9.78.
As to `Cc1ccc(N)cc1` [p-Toluidine], the pKa was 5.30.
Turning to `O=S1(=O)CCCN1`, the pKa is on record as 11.39.
In the case of `O=C1CC(=O)NC(=O)N1` [Barbituric acid], the pKa is 4.04.
For the molecule `O=C1NCCS(=O)(=O)N1`, the pKa was 4.51.
As to `OCc1c[nH]cn1` [4-Hydroxylmethylimidazole], the pKa is recorded as 6.39.
As for `O=C(c1ccccc1)c1ccc(NS(=O)(=O)C(F)(F)F)cc1` [p-C6 H5 CO--C6 H4 --NHSO2 CF3], the pKa is given as 3.22.
For the molecule `O=[N+]([O-])c1cccc(S(=O)(=O)NO)c1` [m-NO2 --C6 H4 --SO2 NHOH], the pKa is on record as 8.60.
Take `Cc1ccc(S(=O)(=O)NN)cc1` [p-CH3 --C6 H4 --SO2 NHNH2]: the pKa is on record as 10.71.
`NNS(=O)(=O)c1ccc(Br)cc1` [p-Br--C6 H4 --SO2 NHNH2]: the pKa is recorded as 10.36.
With `CC(=O)NS(=O)(=O)c1ccc(C)cc1` [p-CH3 --C6 H4 --SO2 NHCOCH3], the pKa is 4.92.
Consider `CCN(CC)CCN(CC)CC` [Tetraethylethylenediamine], for which the pKa2 was 5.89.
With `O=C(c1ccccc1)c1cccc(NS(=O)(=O)C(F)(F)F)c1` [m-C6 H5 CO--C6 H4 --NHSO2 CF3], the pKa is on record as 3.50.
Consider `Cc1ccc(C(=O)NO)cc1` [p-CH3 --C6 H4 --CONHOH], for which the pKa is 8.99.
Consider `O=C(NO)c1ccc(Br)cc1` [p-Br--C6 H4 --CONHOH], for which the pKa is on record as 8.61.
In the case of `CC(=O)NS(=O)(=O)Nc1cccc([N+](=O)[O-])c1` [m-NO2 --C6 H4 --NHSO2 NHCOCH3], the pKa is 3.97.
In the case of `CCc1ccc(NS(=O)(=O)C(F)(F)F)cc1` [p-CH3 CH2 --C6 H4 --NHSO2 CF3], the pKa was 4.82.
Turning to `CC(=O)NS(=O)(=O)c1ccc(Br)cc1` [p-Br--C6 H4 --SO2 NHCOCH3], the pKa was 4.52.
`Nc1ccccc1C(=O)O` [o-Aminobenzoic acid]: the pKa is 2.15.
`O=C1CS(=O)(=O)NC(=O)N1` [drawing 5]: the pKa is listed as 11.00.
On to `O=S(=O)(Nc1c(Cl)cc(Cl)cc1Cl)C(F)(F)F` [2,4,6-trichloro-C6 H2 --NHSO2 CF3], for which the pKa was 2.70.
Regarding `O=c1[nH]c(=O)c2[nH]c(=O)[nH]c2[nH]1` [Uric acid], the pKa is reported as 5.83.
As to `O=C(c1ccccc1)c1cccc(NS(=O)(=O)CF)c1` [m-C6 H5 CO--C6 H4 --NHSO2 CFH2], the pKa was 6.77.
Turning to `CCS(=O)(=O)NC` [CH3 CH2 SO2 NHCH3], the pKa is reported as 11.84.
For the molecule `CC(=O)NS(=O)(=O)c1ccccc1` [C6 H5 --SO2 NHCOCH3], the pKa is 4.72.
In the case of `NS(=O)(=O)c1cccc([N+](=O)[O-])c1` [m-NO2 --C6 H4 --SO2 NH2], the pKa is on record as 9.40.
With `Cc1c[nH]cn1` [4-Methylimidazole], the pKa is 7.67.
Turning to `O=S(=O)(Nc1cccc(C(F)(F)F)c1)C(F)(F)F` [3,3-CF3 --C6 H4 --NHSO2 CF3], the pKa is reported as 3.70.
With `O=C(NO)c1cccc([N+](=O)[O-])c1` [m-NO2 --C6 H4 --CONHOH], the pKa is reported as 8.20.
For the molecule `O=C1CS(=O)(=O)NC(=O)N1` [drawing 3], the pKa was 2.88.
On to `COc1ccc(NS(=O)(=O)C(F)(F)F)cc1` [p-CH3 O--C6 H4 --NHSO2 CF3], for which the pKa is reported as 4.90.
Turning to `O=S(=O)(NO)c1ccc(Br)cc1` [p-Br--C6 H4 --SO2 NHOH], the pKa is given as 9.08.
Take `CNS(C)(=O)=O` [CH3 SO2 NHCH3]: the pKa was 11.79.
In the case of `Cc1ccc(S(=O)(=O)NO)cc1` [p-CH3 --C6 H4 --SO2 NHOH], the pKa was 9.40.
On to `CC(=O)c1ccc(NS(=O)(=O)C(F)(F)F)cc1` [p-CH3 CO--C6 H4 --NHSO2 CF3], for which the pKa is reported as 3.29.
Take `NS(=O)(=O)c1ccc(Br)cc1` [p-Br--C6 H4 --SO2 NH2]: the pKa is 9.87.
`NNS(=O)(=O)c1ccccc1` [C6 H5 --SO2 NHNH2]: the pKa is 10.60.
`OCCN(CCO)CCN(CCO)CCO` [Tetrakis-(2-hydroxyethyl) ethylenediamine]: the pKa2 is 4.5.
For the molecule `O=S(=O)(Nc1ccccc1)C(F)F` [C6 H5 --NHSO2 CF2 H], the pKa is 6.19.
Consider `CS(=O)(=O)Nc1cccc(C(=O)c2ccccc2)c1` [m-C6 H5 CO--C6 H4 --NHSO2 CH3], for which the pKa is listed as 8.19.
Regarding `O=C(O)CNC(=O)c1ccccc1` [Hippuric acid], the pKa is on record as 3.64.
With `O=P(O)(O)OC(CO)CO` [Glycerol-2-phosphoric acid], the pKa2 is 6.65.
As for `NS(=O)(=O)C(F)F` [NH2 SO2 CF2 H], the pKa is 8.06.
For the molecule `O=S(=O)(Nc1ccc(F)cc1F)C(F)(F)F` [2,4-difluoro-C6 H3 --NHSO2 CF3], the pKa is given as 3.44.
`CN(C)CCN` [Dimethylaminoethylamine]: the pKa2 is 6.50.
As to `O=S(=O)(Nc1ccc(Cl)cc1C(F)(F)F)C(F)(F)F` [2-CF3-4-Cl--C6 H3 --NHSO2 CF3], the pKa is recorded as 2.59.
For `c1ccc2ncccc2c1` [Quinoline], the pKa was 5.00.
Take `Cc1cc(Cl)ccc1NS(=O)(=O)C(F)(F)F` [2-CH3-4-Cl--C6 H3 --NHSO2 CF3]: the pKa was 3.90.
In the case of `O=C(O)C(Cl)(Cl)Cl` [Trichloroacetic acid], the pKa was 0.66.
As to `O=S(=O)(Nc1ccc(Cl)cc1Cl)C(F)(F)F` [2,4-dichloro-C6 H3 --NHSO2 CF3], the pKa is given as 2.96.
On to `O=S(=O)(NO)c1ccccc1` [C6 H5 --SO2 NHOH], for which the pKa is 9.34.
Regarding `CS(=O)(=O)NS(C)(=O)=O` [CH3 SO2 NHSO2 CH3], the pKa is 1.36.
With `NS(=O)(=O)CF` [NH2 SO2 CFH2], the pKa is 9.32.
Consider `O=C(O)/C=C(\CC(=O)O)C(=O)O` [trans-Aconitic acid], for which the pKa1 is 2.80 and the pKa2 is given as 4.46.

(Values after patent publication US5994041A, “Process for buffering concentrated aqueous slurries” (priority 1998, dated 1999).)
